Experimental data published in the Kinase Knowledgebase extract (Sharma et al. 2016).

Experiments:
PIK3CA (human) = PIK3CA (human) (UniProt P42336); experiment: Assessment of PIK3CA Kinase Activity
PIK3CG (human) = PIK3CG (human) (UniProt P48736); experiment: Assessment of PIK3CG Kinase Activity
PIK3CD (Human) = PIK3CD (Human) (UniProt O00329); experiment: Assessment of PIK3CD Kinase Activity
PIK3CB (Human) = PIK3CB (Human) (UniProt P42338); experiment: Assessment of PIK3CB Kinase Activity
Chain of PIK3CB (Human) (P42338 whole entry, looked up): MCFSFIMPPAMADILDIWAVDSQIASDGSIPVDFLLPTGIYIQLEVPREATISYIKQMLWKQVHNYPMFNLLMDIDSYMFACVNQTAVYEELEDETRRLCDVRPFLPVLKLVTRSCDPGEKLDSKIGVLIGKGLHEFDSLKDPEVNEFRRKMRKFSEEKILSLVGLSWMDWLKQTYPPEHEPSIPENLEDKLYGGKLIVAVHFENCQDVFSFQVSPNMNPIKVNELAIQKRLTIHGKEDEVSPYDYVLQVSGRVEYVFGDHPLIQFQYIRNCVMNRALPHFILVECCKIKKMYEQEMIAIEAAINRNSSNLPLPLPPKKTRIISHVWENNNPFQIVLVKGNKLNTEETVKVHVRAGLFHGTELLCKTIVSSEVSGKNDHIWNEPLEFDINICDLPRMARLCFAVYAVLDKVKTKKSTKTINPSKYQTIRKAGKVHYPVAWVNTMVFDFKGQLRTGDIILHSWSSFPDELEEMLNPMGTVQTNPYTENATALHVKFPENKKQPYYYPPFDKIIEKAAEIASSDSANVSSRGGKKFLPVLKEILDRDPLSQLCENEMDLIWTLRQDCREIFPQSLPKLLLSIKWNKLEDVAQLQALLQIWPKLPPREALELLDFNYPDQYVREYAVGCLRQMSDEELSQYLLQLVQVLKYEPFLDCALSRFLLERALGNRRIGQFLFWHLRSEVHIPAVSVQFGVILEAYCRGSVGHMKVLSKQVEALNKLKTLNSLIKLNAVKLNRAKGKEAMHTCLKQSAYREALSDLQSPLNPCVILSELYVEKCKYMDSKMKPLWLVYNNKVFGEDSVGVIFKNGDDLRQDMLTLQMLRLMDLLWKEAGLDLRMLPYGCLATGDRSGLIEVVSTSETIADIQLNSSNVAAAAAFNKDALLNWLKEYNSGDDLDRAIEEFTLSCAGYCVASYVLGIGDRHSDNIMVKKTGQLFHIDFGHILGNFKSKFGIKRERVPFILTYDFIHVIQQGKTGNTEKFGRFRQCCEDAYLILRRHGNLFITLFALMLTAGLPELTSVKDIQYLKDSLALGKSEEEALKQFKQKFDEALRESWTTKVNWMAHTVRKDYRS

Chain of PIK3CG (human) (P48736 whole entry, looked up): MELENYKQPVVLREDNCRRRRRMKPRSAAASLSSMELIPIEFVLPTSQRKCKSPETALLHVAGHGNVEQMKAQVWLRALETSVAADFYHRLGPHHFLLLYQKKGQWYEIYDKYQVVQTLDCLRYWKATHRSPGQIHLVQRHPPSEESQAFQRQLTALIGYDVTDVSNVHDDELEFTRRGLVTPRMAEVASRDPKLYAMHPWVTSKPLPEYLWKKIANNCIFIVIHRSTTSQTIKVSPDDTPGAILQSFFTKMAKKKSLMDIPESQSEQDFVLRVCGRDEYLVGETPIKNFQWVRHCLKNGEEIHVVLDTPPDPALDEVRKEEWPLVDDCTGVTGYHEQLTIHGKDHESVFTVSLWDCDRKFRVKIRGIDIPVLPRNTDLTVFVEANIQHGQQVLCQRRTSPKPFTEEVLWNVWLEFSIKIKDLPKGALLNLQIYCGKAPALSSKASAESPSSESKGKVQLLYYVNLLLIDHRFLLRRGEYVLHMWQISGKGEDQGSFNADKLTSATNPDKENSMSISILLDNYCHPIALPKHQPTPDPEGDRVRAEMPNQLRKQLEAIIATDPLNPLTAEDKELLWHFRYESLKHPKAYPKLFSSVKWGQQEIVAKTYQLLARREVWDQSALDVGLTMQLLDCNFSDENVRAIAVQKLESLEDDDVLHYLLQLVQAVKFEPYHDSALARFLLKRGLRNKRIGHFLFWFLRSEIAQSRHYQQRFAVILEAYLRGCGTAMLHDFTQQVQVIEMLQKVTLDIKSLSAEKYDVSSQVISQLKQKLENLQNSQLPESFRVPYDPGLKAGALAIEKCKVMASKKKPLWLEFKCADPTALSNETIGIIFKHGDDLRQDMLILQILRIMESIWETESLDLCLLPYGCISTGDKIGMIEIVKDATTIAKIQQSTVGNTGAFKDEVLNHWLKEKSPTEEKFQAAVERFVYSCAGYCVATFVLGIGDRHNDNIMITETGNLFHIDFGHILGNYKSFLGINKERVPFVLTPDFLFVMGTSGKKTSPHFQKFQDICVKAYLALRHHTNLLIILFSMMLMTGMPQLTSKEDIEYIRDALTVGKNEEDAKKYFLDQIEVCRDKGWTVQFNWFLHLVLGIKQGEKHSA
Chain of PIK3CD (Human) (O00329 whole entry, looked up): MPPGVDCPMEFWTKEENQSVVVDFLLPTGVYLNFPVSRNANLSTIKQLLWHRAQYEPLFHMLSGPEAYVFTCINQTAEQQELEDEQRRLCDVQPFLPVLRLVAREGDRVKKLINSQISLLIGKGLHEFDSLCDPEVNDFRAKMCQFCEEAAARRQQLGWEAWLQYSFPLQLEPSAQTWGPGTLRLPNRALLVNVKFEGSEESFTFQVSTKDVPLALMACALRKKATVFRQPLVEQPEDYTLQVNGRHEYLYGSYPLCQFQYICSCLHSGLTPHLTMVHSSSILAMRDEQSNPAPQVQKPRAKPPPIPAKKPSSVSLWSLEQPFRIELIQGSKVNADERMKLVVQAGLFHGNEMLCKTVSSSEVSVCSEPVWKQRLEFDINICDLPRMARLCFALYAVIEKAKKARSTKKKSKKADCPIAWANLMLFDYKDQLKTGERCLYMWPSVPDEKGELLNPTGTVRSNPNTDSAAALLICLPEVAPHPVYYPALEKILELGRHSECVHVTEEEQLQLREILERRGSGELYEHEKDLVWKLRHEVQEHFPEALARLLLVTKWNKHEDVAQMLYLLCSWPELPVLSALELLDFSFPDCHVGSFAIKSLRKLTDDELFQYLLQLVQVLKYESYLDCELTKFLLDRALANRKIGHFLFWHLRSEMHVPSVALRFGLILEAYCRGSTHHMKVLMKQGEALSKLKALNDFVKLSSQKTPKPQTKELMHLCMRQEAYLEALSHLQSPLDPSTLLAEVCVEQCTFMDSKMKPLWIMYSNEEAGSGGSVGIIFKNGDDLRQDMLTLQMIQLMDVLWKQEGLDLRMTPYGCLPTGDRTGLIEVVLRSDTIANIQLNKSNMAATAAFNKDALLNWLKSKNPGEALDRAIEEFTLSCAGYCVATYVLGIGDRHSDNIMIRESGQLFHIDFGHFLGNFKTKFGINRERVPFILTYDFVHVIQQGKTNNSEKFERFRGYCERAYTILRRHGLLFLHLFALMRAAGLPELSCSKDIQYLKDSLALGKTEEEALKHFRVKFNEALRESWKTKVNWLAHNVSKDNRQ
Chain of PIK3CA (human) (P42336 whole entry, looked up): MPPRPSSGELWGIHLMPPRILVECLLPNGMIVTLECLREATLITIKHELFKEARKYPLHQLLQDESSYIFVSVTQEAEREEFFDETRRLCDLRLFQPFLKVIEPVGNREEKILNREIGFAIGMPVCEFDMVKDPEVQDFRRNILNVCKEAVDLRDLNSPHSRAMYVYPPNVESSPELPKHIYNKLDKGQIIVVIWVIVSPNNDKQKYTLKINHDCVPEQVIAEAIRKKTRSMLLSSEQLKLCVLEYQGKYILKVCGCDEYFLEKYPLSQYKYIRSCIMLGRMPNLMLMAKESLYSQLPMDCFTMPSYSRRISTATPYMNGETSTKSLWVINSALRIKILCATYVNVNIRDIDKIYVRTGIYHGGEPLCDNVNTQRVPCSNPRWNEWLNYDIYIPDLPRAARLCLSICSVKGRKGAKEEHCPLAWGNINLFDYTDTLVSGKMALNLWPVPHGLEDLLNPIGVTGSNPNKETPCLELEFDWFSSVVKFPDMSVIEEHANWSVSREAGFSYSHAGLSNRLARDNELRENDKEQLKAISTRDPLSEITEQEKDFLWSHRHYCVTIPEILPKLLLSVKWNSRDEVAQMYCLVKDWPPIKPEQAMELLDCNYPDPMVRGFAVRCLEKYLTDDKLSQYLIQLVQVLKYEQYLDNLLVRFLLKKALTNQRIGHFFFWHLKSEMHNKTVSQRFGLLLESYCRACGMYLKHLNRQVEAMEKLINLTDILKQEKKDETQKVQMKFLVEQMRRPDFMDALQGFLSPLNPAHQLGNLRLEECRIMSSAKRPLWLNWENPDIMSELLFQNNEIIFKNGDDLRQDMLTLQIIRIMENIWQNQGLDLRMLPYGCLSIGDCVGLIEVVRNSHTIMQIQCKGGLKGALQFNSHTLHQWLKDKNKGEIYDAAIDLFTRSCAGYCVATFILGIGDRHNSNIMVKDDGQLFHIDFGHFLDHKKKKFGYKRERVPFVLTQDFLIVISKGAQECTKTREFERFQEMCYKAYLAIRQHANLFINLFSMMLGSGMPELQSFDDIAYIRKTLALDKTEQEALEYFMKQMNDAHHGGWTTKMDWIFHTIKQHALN

## CNc1nc(C)c2cc(-c3ccc(O)c(F)c3)ccc2n1
PIK3CA (human)
  IC50: 500 to 1000 nM

## Cc1nc(Nc2cccnc2)nc2ccc(-c3cc(O)cc(F)c3)cc12
PIK3CG (human)
  IC50: ≤ 100 nM
PIK3CD (Human)
  IC50: ≤ 100 nM
PIK3CA (human)
  IC50: ≤ 100 nM

## CNc1nc(C)c2cc(-c3cccc(O)c3)ccc2n1
PIK3CG (human)
  IC50: ≤ 100 nM
PIK3CD (Human)
  IC50: 100 to 500 nM
PIK3CA (human)
  IC50: 100 to 500 nM

## CNc1nc(C)c2cc(-c3ccc(F)c(O)c3)ccc2n1
PIK3CA (human)
  IC50: 500 to 1000 nM

## Cc1nc(Nc2cccnc2)nc2ccc(-c3cccc(O)c3)cc12
PIK3CG (human)
  IC50: ≤ 100 nM
PIK3CD (Human)
  IC50: ≤ 100 nM
PIK3CA (human)
  IC50: ≤ 100 nM

## Nc1ncc2cc(-c3cccc(O)c3)ccc2n1
PIK3CA (human)
  IC50: 100 to 500 nM

## CNc1nc(C)c2cc(-c3cc(O)cc(F)c3)ccc2n1
PIK3CG (human)
  IC50: ≤ 100 nM
PIK3CD (Human)
  IC50: ≤ 100 nM
PIK3CA (human)
  IC50: 100 to 500 nM
PIK3CB (Human)
  IC50: 500 to 1000 nM

## Cc1nc(N)nc2ccc(-c3cccc(O)c3)cc12
PIK3CG (human)
  IC50: ≤ 100 nM
PIK3CD (Human)
  IC50: ≤ 100 nM
PIK3CA (human)
  IC50: 100 to 500 nM
PIK3CB (Human)
  IC50: 100 to 500 nM

## CNc1nc(C)c2cc(-c3ccc(O)c(Cl)c3)ccc2n1
PIK3CA (human)
  IC50: 500 to 1000 nM

## Cc1nc(N)nc2ccc(-c3cnc4[nH]ccc4c3)cc12
PIK3CA (human)
  IC50: 500 to 1000 nM

## CNc1nc(C)c2cc(-c3cnc4[nH]ccc4c3)ccc2n1
PIK3CG (human)
  IC50: 100 to 500 nM
PIK3CA (human)
  IC50: 500 to 1000 nM
